Assay results taken from patent US12145927B2 (BRISTOL-MYERS SQUIBB COMPANY, priority 2018, dated 2024).

Biological target: T1, human IDO1 (Homo sapiens, UniProt P14902)
T1 construct: expressed in transfected cells
Test: IDO inhibition assay in human IDO1/HEK293 cells (IDO1 HEK Human)
Format: cell-based
Conditions: HEK293 cells stably expressing human IDO1; 20 hours incubation; absorbance at 490 nm after Ehrlich reagent
Procedure, shortened: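 Kynurenine output of stably IDO1-transfected HEK293 cells was measured by absorbance at 490 nm after mixing supernatant with 0.2% Ehrlich reagent, following TCA stop (0.2% final, 50° C., 30 min). Cells were incubated 20 hours with compound. Inhibition was scaled between DMSO and 500 nM reference standard.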

T1 sequence (P14902 whole entry): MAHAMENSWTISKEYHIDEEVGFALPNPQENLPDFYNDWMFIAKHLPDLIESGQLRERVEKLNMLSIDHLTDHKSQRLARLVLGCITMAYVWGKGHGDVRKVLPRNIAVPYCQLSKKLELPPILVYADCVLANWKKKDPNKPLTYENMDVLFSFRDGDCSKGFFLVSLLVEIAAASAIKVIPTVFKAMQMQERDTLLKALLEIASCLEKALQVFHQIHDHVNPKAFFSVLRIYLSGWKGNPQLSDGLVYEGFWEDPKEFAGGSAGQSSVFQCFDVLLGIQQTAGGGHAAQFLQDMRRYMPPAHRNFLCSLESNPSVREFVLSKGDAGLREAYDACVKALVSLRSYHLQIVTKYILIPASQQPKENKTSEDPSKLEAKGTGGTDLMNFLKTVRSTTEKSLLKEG

Compound | IC50
Cc1ccc(Nc2cc(-c3ccccc3-c3nnn[nH]3)cc3c2OCCCC3c2ccccc2)nc1 (single isomer, unassigned) [62 (En. 1), N-(7-(2-(1H-tetrazol-5-yl)phenyl)-5-phenyl-2,3,4,5-tetrahydrobenzo[b]oxepin-9-yl)-5-methylpyridin-2-amine] | 1.81 µM
Cc1ccc(NC(=O)Nc2cc(-c3ccccc3-c3nnn[nH]3)cc3c2OCC(O)C(O)C3c2ccccc2)cc1 (single isomer, unassigned) [9 (En. 2), 1-(7-(2-(1H-tetrazol-5-yl)phenyl)-3,4-dihydroxy-5-phenyl-2,3,4,5-tetrahydrobenzo[b]oxepin-9-yl)-3-(p-tolyl)urea] | 0.579 µM
O=C(Cc1ccccc1F)Nc1cc(-c2ccccc2-c2nnn[nH]2)cc2c1OCCCC2C1CC1 (single isomer, unassigned) [40 (En. 2), N-(7-(2-(1H-tetrazol-5-yl)phenyl)-5-cyclopropyl-2,3,4,5-tetrahydrobenzo[b]oxepin-9-yl)-2-(2-fluorophenyl)acetamide] | 0.0586 µM
Cc1ccc(Nc2cc(-c3ccccc3-c3nnn[nH]3)cc3c2OCCCC3c2ccccc2)nc1 (single isomer, unassigned) [62 (En. 2), N-(7-(2-(1H-tetrazol-5-yl)phenyl)-5-phenyl-2,3,4,5-tetrahydrobenzo[b]oxepin-9-yl)-5-methylpyridin-2-amine] | 0.0449 µM
Cc1ccc(NC(=O)Nc2cc(-c3ccccc3-c3nnn[nH]3)cc3c2OCC(O)C(O)C3c2ccccc2)cc1 (single isomer, unassigned) [9 (En. 1), 1-(7-(2-(1H-tetrazol-5-yl)phenyl)-3,4-dihydroxy-5-phenyl-2,3,4,5-tetrahydrobenzo[b]oxepin-9-yl)-3-(p-tolyl)urea] | > 6 µM

Further lines, results first:

IC50 | Compound
0.0091 µM | C=C(C)[C@H]1Oc2c(NC(=O)Nc3ccc(C)cc3)cc(-c3ccccc3-c3nnn[nH]3)cc2[C@@H]1c1ccccc1 (racemic) [Example 93, (+/−)-1-((trans)-5-(2-(1H-tetrazol-5-yl)phenyl)-3-phenyl-2-(prop-1-en-2-yl)-2,3-dihydrobenzofuran-7-yl)-3-(p-tolyl)urea]
0.499 µM | CC1CCOc2c(Nc3nc4ccccc4[nH]3)cc(-c3ccccc3-c3nnn[nH]3)cc2C1c1ccccc1 (single isomer, unassigned) [Example 52, N-(7-(2-(1H-tetrazol-5-yl)phenyl)-4-methyl-5-phenyl-2,3,4,5-tetrahydrobenzo[b]oxepin-9-yl)-1H-benzo[d]imidazol-2-amine]
0.327 µM | COC(=O)c1c(C)cccc1-c1cc(NC(=O)Nc2ccc(C)cc2)c2c(c1)C(c1ccccc1)CCCO2 (stereo not drawn) [Example 66, methyl 2-methyl-6-(5-phenyl-9-(3-(p-tolyl)ureido)-2,3,4,5-tetrahydrobenzo[b]oxepin-7-yl)benzoate]
0.07 µM | O=C(Nc1ccc(C2CC2)cc1F)Nc1cc(-c2ccccc2-c2nnn[nH]2)cc2c1OCCCC2c1ccccc1 (stereo not drawn) [Example 6, 1-(7-(2-(1H-tetrazol-5-yl)phenyl)-5-phenyl-2,3,4,5-tetrahydrobenzo[b]oxepin-9-yl)-3-(4-cyclopropyl-2-fluorophenyl)urea]
0.0017 µM | Cc1ccc(NC(=O)Nc2cc(-c3ccccc3-c3nnn[nH]3)cc3c2OCCC(C)C3c2ccccc2)cc1 (single isomer, unassigned) [Example 44, 1-(7-(2-(1H-tetrazol-5-yl)phenyl)-4-methyl-5-phenyl-2,3,4,5-tetrahydrobenzo[b]oxepin-9-yl)-3-(p-tolyl)urea]
0.017 µM | c1ccc(C2CCCOc3c(Nc4nc5ccccc5s4)cc(-c4ccccc4-c4nnn[nH]4)cc32)cc1 (single isomer, unassigned) [64 (En. 2), N-(7-(2-(1H-tetrazol-5-yl)phenyl)-5-phenyl-2,3,4,5-tetrahydrobenzo[b]oxepin-9-yl) benzo[d]thiazol-2-amine]
0.0272 µM | Cc1ccc(NC(=O)Nc2cc(-c3ccccc3C(=O)O)cc3c2OCCCC3c2ccccc2)cc1 (racemic) [Example 8-1, 2-(5-phenyl-9-(3-(p-tolyl)ureido)-2,3,4,5-tetrahydrobenzo[b]oxepin-7-yl)benzoic acid]
